Experimental data published in publication PMC10194703 (Nature structural & molecular biology, 2023).
Where “and” joins values, the source holds several entries; their conditions need not be identical. Equal values may be shown once.

Assays:
[1] = tested on: SthK CNBD; assay: AFM single molecule force spectroscopy; assay type: binding; conditions: for Ka: individual binding sites, Ka=Ka(2D)mr, mr=0.03 binding-sites/nm^2; for Ka(2D): probabilistic binding frequency model fit, contact time 0.02-1.00 s
[2] = biological target: T1, His6-C-linker-CNBD (Winmispira thermophila, UniProt G0GA88); assay: microscale thermophoresis; assay type: binding; conditions: 50 nM labeled His6-C-linker-CNBD; cN 0.00305-100 μM
T1 sequence (G0GA88 226-423): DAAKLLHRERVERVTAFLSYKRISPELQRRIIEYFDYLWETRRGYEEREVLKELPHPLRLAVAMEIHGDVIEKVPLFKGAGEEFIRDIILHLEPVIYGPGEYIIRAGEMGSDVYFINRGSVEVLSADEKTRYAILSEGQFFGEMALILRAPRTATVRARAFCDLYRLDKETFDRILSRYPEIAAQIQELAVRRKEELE

[3] = tested on: SthK CNBD; assay: joint Bell-Evans fitting of AFM-SMFS and MDS dynamic force spectra; conditions: Bell-Evans fit, AFM-SMFS + MDS joint data; 0.02 s bond formation
[4] = biological target: SthK full-length channels; conditions: read-out: affinity; SthK full-length channels in amphipol; cited from earlier work
[5] = tested on: SthK; conditions: cited from earlier work; for open probability Po: depolarized membrane potentials (+100 mV)
[6] = biological target: His6-C-linker-CNBD construct of SthK (residues 226-423); assay: SEC
[7] = biological target: His6-C-linker-CNBD construct of SthK (residues 226-423); assay: AFM imaging
[8] = interchange between state 1 and state 2 bonds

koff ([1]; Bell-Evans fit, AFM-SMFS only, 0.02 s (20 ms) bond formation time) [s⁻¹] | kon(2D) ([1]; kon(2D)=Ka(2D)koff) [nm^2/s] | kon ([1]; molecular on rate, kon=Kakoff) [s⁻¹] | Kd [2] [µM] | stoichiometry N [6] | stoichiometry N [7] | Compound | Ka [1] | Ka(2D) [1] [nm^2] | koff [3] [s⁻¹] | Kd [4] [µM] | open probability Po [5] | fold lower open probability than cAMP ([5]; single channel recordings) | bond formation time needed to fully populate state 2 [1] | k1 (forward rate constant for entering the deeper binding mode) [1, 8] | k−1 (reverse rate constant for entering the deeper binding mode) [1, 8]
7.7 ± 1.5 | 37.8 ± 9.7 | 1.2 ± 0.3 | 3.3 ± 1.8 | – | – | Nc1nc2c(ncn2[C@@H]2O[C@@H]3COP(=O)(O)O[C@H]3[C@H]2O)c(=O)[nH]1 [cGMP, cyclic guanosine monophosphate] | 0.15 ± 0.02 | 4.9 ± 0.5 | 13.9 ± 6.9 | 2.7 | ~ 0.001 | ~ 1000 fold | – | – | –
– | – | – | – | 4 | 4 | His6-C-linker-CNBD construct of SthK (residues 226-423) (domain or fragment) | – | – | – | – | – | – | – | – | –
– | – | – | – | – | – | Nc1ncnc2c1ncn2[C@@H]1O[C@@H]2COP(=O)(O)O[C@H]2[C@H]1O [cAMP, cyclic adenosine monophosphate] | 0.31 ± 0.04 | 10.4 ± 1.3 | – | 0.6 | ~ 0.4 | – | ~ 0.2 s | 5.4 ± 0.7 1/s and 5.4±0.7 * 1/s | 4.8 ± 0.8 1/s and 4.8±0.8 * 1/s
